US20100261246A1, “METHOD FOR INHIBITING TELOMERASE REACTION” (PANASONIC CORPORATION, priority 2009, published 2010)

Legend:
[1] = system: G-quadruplex structure (human telomeric oligo DNA); test: Absorbance 480 to 800 nm of phthalocyanine mixed with G-quadruplex solutions; format: binding; conditions: 15 μM compound solution, 50 mM HEPES, 100 mM NaCl, pH7
Method: Hereinafter, the interaction between anionic phthalocyanines and various DNAs was studied in Examples 6, 7, 8 and 9. For this purpose, a solution containing a G-quadruplex structure, a solution including a single-stranded DNA, and a solution containing a double-stranded DNA were first prepared according to the following procedures.
A solution of 50 mM HEPES and 100 mM NaCl, pH7 (total volume: 100 μL) containing a single-stranded DNA consisting of a sequence of 5′-[…]-3′ (SEQ ID NO: 2; this sequence being similar to a sequence of a human telomere portion, and thus the DNA referred to as “human telomeric oligo DNA” hereafter) was incubated at 90° C. for 5 min, and thereafter cooled to 0° C. at a rate of temperature fall of 2° C./min, followed by finally incubating at 0° C. for 2 hrs.
The concentrations of the human telomeric oligo DNA contained in the solution were 0, 0.5, 2, 5, 10, 25, 50 and 100 μM.
The absolute values of the positive and negative peaks were maximized for the solution having the human telomeric oligo DNA concentration of 100 μM, and dropped in the order of 50, 25, 10, 5, 2 and 0.5 μM. […] Hereafter, G-quadruplex solutions prepared from the solutions having human telomeric oligo DNA concentrations of 100, 50, 25, 10, 5, 2 and 0.5 μM are referred to as G-quadruplex solutions A, B, C, D, E, F and G, respectively. On the other hand, the solution without the human telomeric oligo DNA contained therein is referred to as NC solution.
First, a solution of 50 mM HEPES and 100 mM NaCl, pH7 (total volume: 20 μL) containing 15 μM CuPC was prepared. Then, this CuPC solution was mixed with each of the G-quadruplex solutions C, D, E and F and the NC solution, and the absorbance of these liquid mixtures were measured at 480 to 800 nm.
First, a solution of 50 mM HEPES and 100 mM NaCl, pH7 (total volume: 20 μL) containing 15 μM NiPC was prepared. Then, this NiPC solution was mixed with each of the G-quadruplex solutions D, E, F and G, and the NC solution, and the absorbance of these liquid mixtures were measured at 480 to 800 nm.
First, a solution of 50 mM HEPES and 100 mM NaCl, pH7 (total volume: 20 μL) containing 15 μM PC was prepared. Then, this PC solution was mixed with each of the G-quadruplex solutions D, E, F and G, and the NC solution, and the absorbance of these liquid mixtures were measured at 480 to 800 nm.
First, a solution of 50 mM HEPES and 100 mM NaCl, pH7 (total volume: 20 μL) containing 15 μM CoPC was prepared. Then, this CoPC solution was mixed with each of the G-quadruplex solutions B, C, D and G, and the NC solution, and the absorbance of these liquid mixtures were measured at 480 to 800 nm.

telomerase = test: Telomerase reaction carried out first, then PCR of the diluted reaction solution, gel electrophoresis, with or without λDNA; format: biochemical; conditions: final concentrations 0.1 to 10 μM
Method: Moreover, effects of inhibiting telomerase by TMPyP and anionic phthalocyanines were compared in Comparative Example 3 and Example 4 to 5 below. In these experiments, the S7700 kit was used similarly to the aforementioned Comparative Examples 1 to 2 and Examples 1 to 3. However, in Comparative Examples 1 to 2 and Examples 1 to 3 described above, the reagents required only for the telomerase reaction and PCR were all mixed first, and the telomerase reaction and PCR were carried out sequentially by regulating the reaction temperature. To the contrary, in the following Comparative Example 3 and Examples 4 to 5, only the reagents required for the telomerase reaction were first mixed to carry out a telomerase reaction, and a part of the reaction solution and the reagents required for the PCR were mixed to carry out the PCR.
In addition, in each of the following Comparative Example 3 and Examples 4 to 5, experiments were carried out with or without addition of a λDNA in the telomerase reaction. Addition of the λDNA was intended to reproduce for mimicking the conditions in which a large amount of double-stranded DNAs are present as in the case of genomic DNAs in cells, and to study the effects of inhibiting telomerase by TMPyP or anionic phthalocyanines even under conditions more approximate to those in vivo, by adding a λDNA.
Telomerase reaction solution in a total volume of 10 μL were prepared by mixing 1 μL of 10× TRAP Reaction buffer, 0.2 μL of 50× dNTP Mix, 0.2 μL of TS primer, 4 μL of the telomerase solution prepared in Comparative Example 1, 2 μL of the TMPyP aqueous solution, and 2.6 μL of milliQ water (the reaction solutions having final TMPyP concentrations of 0 M, 0.1 μM, 0.3 μM, 1 μM, 3 μM and 10 μM were prepared, respectively). Then, the reaction solutions were stood under a condition of 30° C. for 60 min to allow a telomerase reaction to be carried out.
Next, 4 μL of a solution prepared by diluting the solution after the telomerase reaction 20 times with milliQ water, 0.2 μL of 50× dNTP Mix, 0.2 μL of TS primer, 0.2 μL of Primer Mix, 0.1 μL of TaKaLa LA Taq Hot Start Version (manufactured by Takara Bio Inc.), 1 μL of 10× LA PCR buffer II (Mg^2+ plus) (buffer solution included in TaKaLa LA Taq Hot Start Version), and 4.3 μL of milliQ water were mixed to prepare a PCR solution in a total volume of 10 μL. Then, PCR was carried out by allowing this PCR solution to stand under temperature conditions in which a thermo cycle of: 30 sec at 95° C.; 30 sec at 59° C.; and 30 sec at 72° C. was repeated 30 times.
Finally, the solution after the PCR was electrophoresed on a 10% polyacrylamide gel, and stained with GelStar Nucleic Acid Stain (manufactured by Takara Bio Inc.). […] In the order from the leftmost lane, the results with final concentrations of TMPyP being 0 M, 0.1 μM, 0.3 μM, 1 μM, 3 μM and 10 μM are shown.
On the other hand, experiments in which a λDNA was added to the telomerase reaction solution were also carried out. More specifically, in preparing the telomerase reaction solution described above, 2.6 μL of a λDNA solution (manufactured by Takara Bio Inc.) was mixed in place of mixing 2.6 μL of milliQ water. Other telomerase reaction temperature/time schedule, PCR solution preparation condition, PCR temperature/time schedule, electrophoresis condition were just the same.

telomerase, sequence (O14746 whole entry): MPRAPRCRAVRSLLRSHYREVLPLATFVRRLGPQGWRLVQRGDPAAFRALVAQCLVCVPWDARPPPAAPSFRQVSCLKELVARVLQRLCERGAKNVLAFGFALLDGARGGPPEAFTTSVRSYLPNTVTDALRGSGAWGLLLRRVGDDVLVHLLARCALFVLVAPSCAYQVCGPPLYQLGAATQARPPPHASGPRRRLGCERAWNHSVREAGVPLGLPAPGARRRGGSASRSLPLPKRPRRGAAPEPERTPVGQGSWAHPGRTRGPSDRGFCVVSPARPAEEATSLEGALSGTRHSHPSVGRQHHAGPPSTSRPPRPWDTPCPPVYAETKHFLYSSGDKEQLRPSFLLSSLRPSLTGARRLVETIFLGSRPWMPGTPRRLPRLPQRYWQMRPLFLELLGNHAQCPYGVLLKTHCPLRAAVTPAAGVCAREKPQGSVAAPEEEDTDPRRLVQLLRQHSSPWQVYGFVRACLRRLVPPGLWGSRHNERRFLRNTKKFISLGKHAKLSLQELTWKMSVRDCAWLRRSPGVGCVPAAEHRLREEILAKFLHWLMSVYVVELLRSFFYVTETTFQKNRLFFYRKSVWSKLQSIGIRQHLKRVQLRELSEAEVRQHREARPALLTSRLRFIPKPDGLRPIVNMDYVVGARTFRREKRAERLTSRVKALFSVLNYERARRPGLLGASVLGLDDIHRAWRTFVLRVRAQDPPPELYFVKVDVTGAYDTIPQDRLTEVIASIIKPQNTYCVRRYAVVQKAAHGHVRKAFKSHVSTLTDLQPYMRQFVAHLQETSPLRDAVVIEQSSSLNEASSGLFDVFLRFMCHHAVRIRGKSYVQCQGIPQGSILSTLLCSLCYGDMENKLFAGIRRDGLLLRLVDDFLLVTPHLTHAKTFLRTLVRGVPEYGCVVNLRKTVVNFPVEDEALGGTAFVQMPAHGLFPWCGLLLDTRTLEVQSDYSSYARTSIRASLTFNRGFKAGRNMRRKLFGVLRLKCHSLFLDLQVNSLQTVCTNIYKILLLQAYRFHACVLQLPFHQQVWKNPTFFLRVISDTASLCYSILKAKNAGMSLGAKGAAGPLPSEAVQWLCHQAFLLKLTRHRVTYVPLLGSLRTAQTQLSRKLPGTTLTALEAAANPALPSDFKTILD

Substance | interaction with the G-quadruplex structure (absorption peak) [1] | inhibition of the telomerase reaction (band of telomerase reaction product) (telomerase; in the presence of λDNA) | inhibition of the telomerase reaction (band of telomerase reaction product) (telomerase; no addition of λDNA)
Nickel(II) phthalocyanine tetrasulfonic acid tetrasodium salt [NiPC] | an interaction occurred | can efficiently inhibit the telomerase reaction | inhibited with higher concentration
Copper(II) phthalocyanine-3,4′,4″,4′″-tetrasulfonic acid tetrasodium salt [CuPC] | an interaction occurred | can efficiently inhibit the telomerase reaction | inhibited with higher concentration
